Source: ChEMBL document CHEMBL4732242 (Eur J Med Chem, 2021)

Assays:
[1] = target: T1, Homeodomain-interacting protein kinase 2 (Homo sapiens, UniProt Q9H2X6); experiment: Inhibition of HIPK2 (unknown origin) by selectscreen kinase assay
[2] = target: T2, Dual specificity protein kinase CLK1 (Homo sapiens, UniProt P49759); experiment: Inhibition of CLK1 (unknown origin) by NanoBRET cellular target engagement assay
[3] = target: T2, Dual specificity protein kinase CLK1; experiment: Inhibition of human recombinant CLK1 using ERMRPRKRQGSVR substrate by radiometric scintillation assay
[4] = target: T3, Dual specificity protein kinase CLK2 (Homo sapiens, UniProt P49760); experiment: Inhibition of human recombinant CLK2 using YRRAAVPPSPSLSR substrate by radiometric scintillation assay
[5] = target: T4, Dual specificity protein kinase CLK3 (Homo sapiens, UniProt P49761); experiment: Inhibition of human full length recombinant CLK3 using ERMRPRKRQGSVR substrate by radiometric scintillation assay
T4 sequence (P49761 whole entry): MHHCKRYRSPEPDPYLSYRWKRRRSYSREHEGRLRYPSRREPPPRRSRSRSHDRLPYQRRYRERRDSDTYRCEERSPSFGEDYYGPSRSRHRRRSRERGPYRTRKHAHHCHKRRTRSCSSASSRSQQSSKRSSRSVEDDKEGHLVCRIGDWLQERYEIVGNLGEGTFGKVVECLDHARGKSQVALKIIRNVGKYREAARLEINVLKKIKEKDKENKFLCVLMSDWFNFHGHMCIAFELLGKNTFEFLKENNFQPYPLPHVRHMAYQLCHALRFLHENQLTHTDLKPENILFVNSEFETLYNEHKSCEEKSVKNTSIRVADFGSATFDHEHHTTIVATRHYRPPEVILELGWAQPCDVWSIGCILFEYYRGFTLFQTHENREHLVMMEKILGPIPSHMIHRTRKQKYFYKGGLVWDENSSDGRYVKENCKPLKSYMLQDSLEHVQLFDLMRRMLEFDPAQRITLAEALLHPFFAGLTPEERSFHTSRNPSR

[6] = target: T5, Dual specificity protein kinase CLK4 (Homo sapiens, UniProt Q9HAZ1); experiment: Inhibition of human recombinant CLK4 using YRRAAVPPSPSLS substrate by radiometric scintillation assay
[7] = target: T6, Dual specificity tyrosine-phosphorylation-regulated kinase 1A (Homo sapiens, UniProt Q13627); experiment: Inhibition of human full length recombinant DYRK1A using RRRFRPASPLRGPP substrate by radiometric scintillation assay
[8] = target: T7, Dual specificity tyrosine-phosphorylation-regulated kinase 1B (Homo sapiens, UniProt Q9Y463); experiment: Inhibition of human full length recombinant DYRK1B using RRRFRPASPLRGPP substrate by radiometric scintillation assay
T7 sequence (Q9Y463 whole entry): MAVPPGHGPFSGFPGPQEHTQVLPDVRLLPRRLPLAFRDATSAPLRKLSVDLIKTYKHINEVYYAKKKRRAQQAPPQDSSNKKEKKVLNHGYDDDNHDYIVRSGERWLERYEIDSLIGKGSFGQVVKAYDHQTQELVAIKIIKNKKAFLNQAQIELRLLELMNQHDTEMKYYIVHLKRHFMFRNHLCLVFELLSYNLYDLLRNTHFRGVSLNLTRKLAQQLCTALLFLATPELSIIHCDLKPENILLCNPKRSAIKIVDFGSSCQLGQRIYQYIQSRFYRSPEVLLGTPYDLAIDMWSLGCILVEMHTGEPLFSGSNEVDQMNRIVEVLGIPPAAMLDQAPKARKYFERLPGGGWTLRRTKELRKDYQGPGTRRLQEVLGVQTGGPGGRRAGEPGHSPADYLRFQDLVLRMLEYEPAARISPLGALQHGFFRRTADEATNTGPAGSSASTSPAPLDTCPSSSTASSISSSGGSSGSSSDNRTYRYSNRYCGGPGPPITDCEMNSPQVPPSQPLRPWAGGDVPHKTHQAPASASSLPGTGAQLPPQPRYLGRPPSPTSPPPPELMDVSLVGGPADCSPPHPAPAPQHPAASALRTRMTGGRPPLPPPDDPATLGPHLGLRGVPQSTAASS

[9] = target: T8, Dual specificity tyrosine-phosphorylation-regulated kinase 2 (Homo sapiens, UniProt Q92630); experiment: Inhibition of human full length recombinant DYRK2 using casein substrate by radiometric scintillation assay
T8 sequence (Q92630 whole entry): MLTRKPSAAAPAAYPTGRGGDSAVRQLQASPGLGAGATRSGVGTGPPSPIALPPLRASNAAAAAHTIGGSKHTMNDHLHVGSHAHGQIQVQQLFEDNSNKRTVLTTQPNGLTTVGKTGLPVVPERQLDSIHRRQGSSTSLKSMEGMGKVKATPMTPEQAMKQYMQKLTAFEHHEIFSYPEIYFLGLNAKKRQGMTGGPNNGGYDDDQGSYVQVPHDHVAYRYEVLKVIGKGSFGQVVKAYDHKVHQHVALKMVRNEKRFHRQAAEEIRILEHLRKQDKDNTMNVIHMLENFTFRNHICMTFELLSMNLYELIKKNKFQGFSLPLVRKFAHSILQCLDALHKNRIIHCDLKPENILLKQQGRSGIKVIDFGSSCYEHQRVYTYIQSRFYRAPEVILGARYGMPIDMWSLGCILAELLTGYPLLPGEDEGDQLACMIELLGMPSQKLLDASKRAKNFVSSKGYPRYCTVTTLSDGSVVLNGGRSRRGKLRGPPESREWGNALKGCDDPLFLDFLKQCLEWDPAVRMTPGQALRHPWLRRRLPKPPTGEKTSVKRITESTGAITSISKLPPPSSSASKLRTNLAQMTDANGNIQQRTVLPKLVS

[10] = target: T9, Homeodomain-interacting protein kinase 1 (Homo sapiens, UniProt Q86Z02); experiment: Inhibition of human recombinant HIPK1 using myelin substrate by radiometric scintillation assay
T9 sequence (Q86Z02 whole entry): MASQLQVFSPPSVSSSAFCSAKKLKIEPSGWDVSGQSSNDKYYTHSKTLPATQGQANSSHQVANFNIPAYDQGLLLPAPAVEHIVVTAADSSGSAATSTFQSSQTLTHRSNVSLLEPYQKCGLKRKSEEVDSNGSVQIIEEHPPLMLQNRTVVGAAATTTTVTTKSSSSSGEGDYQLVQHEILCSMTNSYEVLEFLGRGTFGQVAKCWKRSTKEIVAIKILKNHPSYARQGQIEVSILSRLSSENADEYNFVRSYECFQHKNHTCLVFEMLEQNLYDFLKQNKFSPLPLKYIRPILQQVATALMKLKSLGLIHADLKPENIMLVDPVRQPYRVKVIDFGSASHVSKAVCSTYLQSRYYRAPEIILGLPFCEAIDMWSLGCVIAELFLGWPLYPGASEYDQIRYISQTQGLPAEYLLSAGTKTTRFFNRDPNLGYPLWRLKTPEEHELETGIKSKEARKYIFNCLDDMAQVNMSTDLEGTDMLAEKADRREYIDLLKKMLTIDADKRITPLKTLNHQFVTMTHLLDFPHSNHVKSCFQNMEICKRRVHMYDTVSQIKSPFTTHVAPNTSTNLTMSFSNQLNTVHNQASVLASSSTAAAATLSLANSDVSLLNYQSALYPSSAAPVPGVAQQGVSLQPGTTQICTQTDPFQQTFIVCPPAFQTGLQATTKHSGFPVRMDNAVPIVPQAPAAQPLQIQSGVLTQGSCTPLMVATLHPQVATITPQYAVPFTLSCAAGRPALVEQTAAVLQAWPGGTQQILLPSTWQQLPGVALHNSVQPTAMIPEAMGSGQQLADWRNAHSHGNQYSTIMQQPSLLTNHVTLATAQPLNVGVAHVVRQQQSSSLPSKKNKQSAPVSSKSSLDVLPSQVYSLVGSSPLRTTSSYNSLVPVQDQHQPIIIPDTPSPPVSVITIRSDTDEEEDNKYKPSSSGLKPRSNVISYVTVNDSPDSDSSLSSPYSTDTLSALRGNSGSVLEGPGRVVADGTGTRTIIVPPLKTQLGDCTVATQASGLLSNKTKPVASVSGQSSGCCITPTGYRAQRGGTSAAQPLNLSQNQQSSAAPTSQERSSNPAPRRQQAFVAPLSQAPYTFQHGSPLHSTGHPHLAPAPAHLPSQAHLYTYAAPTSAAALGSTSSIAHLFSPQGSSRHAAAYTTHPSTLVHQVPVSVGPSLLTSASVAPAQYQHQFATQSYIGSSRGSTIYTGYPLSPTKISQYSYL

[11] = target: T1, Homeodomain-interacting protein kinase 2; experiment: Inhibition of human recombinant HIPK2 using myelin substrate by radiometric scintillation assay
[12] = target: T10, Homeodomain-interacting protein kinase 3 (Homo sapiens, UniProt Q9H422); experiment: Inhibition of human recombinant HIPK3 using myelin substrate by radiometric scintillation assay
T10 sequence (Q9H422 whole entry): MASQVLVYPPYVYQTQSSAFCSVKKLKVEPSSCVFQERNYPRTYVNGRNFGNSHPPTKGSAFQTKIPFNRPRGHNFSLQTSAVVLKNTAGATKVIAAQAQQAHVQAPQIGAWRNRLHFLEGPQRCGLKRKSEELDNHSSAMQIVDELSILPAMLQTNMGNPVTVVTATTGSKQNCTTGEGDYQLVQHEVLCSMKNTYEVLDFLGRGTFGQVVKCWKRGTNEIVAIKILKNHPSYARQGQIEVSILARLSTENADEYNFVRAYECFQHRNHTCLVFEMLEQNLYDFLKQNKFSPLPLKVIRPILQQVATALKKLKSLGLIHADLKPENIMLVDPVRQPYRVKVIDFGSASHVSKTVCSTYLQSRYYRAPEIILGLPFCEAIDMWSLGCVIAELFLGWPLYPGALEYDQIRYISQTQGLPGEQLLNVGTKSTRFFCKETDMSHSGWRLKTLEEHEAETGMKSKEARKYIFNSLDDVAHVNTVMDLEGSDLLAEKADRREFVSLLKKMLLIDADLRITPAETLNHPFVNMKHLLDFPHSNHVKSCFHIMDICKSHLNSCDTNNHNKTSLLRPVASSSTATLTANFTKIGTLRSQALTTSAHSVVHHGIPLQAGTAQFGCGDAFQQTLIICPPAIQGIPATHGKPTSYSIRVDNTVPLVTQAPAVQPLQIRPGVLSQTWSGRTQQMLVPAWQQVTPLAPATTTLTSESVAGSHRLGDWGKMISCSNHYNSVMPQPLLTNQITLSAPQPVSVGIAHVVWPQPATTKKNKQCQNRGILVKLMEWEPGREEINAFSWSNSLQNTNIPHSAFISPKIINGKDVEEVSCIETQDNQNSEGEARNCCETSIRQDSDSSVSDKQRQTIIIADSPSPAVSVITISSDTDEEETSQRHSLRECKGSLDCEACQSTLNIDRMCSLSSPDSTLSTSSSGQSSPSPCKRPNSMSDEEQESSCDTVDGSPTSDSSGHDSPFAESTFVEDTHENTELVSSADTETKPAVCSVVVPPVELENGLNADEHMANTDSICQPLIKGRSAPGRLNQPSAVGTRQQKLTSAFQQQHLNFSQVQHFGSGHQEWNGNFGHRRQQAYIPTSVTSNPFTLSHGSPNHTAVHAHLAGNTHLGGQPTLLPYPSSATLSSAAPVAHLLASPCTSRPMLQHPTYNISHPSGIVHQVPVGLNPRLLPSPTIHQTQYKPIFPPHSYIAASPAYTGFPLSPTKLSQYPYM

[13] = target: T3, Dual specificity protein kinase CLK2; experiment: Inhibition of CLK2 (unknown origin) by NanoBRET cellular target engagement assay
[14] = target: T4, Dual specificity protein kinase CLK3; experiment: Inhibition of CLK3 (unknown origin) by NanoBRET cellular target engagement assay
[15] = target: T5, Dual specificity protein kinase CLK4; experiment: Inhibition of CLK4 (unknown origin) by NanoBRET cellular target engagement assay
[16] = target: T6, Dual specificity tyrosine-phosphorylation-regulated kinase 1A; experiment: Inhibition of DYRK1A (unknown origin) by NanoBRET cellular target engagement assay
[17] = target: T7, Dual specificity tyrosine-phosphorylation-regulated kinase 1B; experiment: Inhibition of DYRK1B (unknown origin) by NanoBRET cellular target engagement assay
[18] = target: T8, Dual specificity tyrosine-phosphorylation-regulated kinase 2; experiment: Inhibition of DYRK2 (unknown origin) by NanoBRET cellular target engagement assay
[19] = target: Mitogen-activated protein kinase kinase kinase 9 (Homo sapiens, UniProt P80192); experiment: Inhibition of MLK1 (unknown origin) by NanoBRET cellular target engagement assay
[20] = target: Mitogen-activated protein kinase kinase kinase 10 (Homo sapiens, UniProt Q02779); experiment: Inhibition of MLK2 (unknown origin) by NanoBRET cellular target engagement assay
[21] = target: Mitogen-activated protein kinase kinase kinase 11 (Homo sapiens, UniProt Q16584); experiment: Inhibition of MLK3 (unknown origin) by NanoBRET cellular target engagement assay
[22] = target: Cyclin-dependent kinase-like 3 (Homo sapiens, UniProt Q8IVW4); experiment: Inhibition of CDKL3 (unknown origin) by NanoBRET cellular target engagement assay
[23] = target: T1, Homeodomain-interacting protein kinase 2; experiment: Inhibition of HIPK2 (unknown origin)
[24] = target: T10, Homeodomain-interacting protein kinase 3; experiment: Inhibition of HIPK3 (unknown origin)
[25] = target: T9, Homeodomain-interacting protein kinase 1; experiment: Inhibition of HIPK1 (unknown origin)
[26] = target: T11, Homeodomain-interacting protein kinase 4 (Homo sapiens, UniProt Q8NE63); experiment: Inhibition of HIPK4 (unknown origin)
T11 sequence (Q8NE63 whole entry): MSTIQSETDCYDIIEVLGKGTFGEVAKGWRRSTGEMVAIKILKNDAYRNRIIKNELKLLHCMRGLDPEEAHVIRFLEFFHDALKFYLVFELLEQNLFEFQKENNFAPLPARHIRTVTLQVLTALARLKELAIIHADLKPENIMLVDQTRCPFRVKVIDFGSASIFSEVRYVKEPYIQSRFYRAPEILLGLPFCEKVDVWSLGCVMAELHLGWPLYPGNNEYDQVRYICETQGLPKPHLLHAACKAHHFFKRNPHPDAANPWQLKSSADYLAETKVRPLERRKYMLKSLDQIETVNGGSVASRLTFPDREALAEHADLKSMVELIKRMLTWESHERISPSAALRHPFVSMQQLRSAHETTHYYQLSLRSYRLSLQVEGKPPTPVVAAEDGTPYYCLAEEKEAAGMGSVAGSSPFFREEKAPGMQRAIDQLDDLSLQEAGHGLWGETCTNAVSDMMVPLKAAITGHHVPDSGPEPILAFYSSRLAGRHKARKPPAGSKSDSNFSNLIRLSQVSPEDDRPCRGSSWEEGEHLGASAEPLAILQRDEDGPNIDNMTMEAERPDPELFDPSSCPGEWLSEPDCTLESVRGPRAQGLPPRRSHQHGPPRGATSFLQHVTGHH

T1 sequence (Q9H2X6 whole entry): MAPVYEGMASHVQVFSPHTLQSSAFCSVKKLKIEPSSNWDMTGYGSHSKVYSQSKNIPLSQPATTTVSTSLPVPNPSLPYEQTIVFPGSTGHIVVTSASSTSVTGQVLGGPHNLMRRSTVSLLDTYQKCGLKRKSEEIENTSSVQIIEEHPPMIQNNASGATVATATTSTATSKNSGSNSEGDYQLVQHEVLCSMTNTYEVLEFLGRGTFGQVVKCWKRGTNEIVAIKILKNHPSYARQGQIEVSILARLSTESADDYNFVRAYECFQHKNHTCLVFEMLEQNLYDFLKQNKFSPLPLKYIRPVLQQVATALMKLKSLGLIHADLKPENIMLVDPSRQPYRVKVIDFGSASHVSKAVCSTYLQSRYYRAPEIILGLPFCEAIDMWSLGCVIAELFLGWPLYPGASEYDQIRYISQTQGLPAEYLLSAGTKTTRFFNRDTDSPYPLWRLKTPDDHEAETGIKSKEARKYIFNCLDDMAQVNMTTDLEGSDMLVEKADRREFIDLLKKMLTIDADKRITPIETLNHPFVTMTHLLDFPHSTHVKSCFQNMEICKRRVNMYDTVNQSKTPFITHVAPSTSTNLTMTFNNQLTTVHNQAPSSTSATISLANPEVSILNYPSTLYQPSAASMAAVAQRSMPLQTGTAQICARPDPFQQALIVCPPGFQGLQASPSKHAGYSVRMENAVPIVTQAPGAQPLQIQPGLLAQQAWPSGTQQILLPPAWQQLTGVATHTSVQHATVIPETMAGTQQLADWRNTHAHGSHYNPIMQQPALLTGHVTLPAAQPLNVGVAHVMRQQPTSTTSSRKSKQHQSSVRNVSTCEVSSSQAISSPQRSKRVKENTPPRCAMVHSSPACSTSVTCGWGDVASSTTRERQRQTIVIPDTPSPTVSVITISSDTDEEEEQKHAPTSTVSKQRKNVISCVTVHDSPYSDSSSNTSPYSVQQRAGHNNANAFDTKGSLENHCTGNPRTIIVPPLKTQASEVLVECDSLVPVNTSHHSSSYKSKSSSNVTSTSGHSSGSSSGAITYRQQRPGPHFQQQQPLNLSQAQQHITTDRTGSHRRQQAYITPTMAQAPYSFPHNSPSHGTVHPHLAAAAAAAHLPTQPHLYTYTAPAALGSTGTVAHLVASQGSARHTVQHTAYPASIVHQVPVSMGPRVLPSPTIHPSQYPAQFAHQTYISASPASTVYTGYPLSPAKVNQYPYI

| SMILES | IC50 [2] [µM] | IC50 [3] [µM] | IC50 [4] [µM] | IC50 [5] [µM] | IC50 [6] [µM] | IC50 [7] [µM] | IC50 [8] [µM] | IC50 [9] [µM] | IC50 [10] [µM] | IC50 [11] [µM] | IC50 [12] [µM] | IC50 [13] [µM] | IC50 [14] [µM] | IC50 [15] [µM] | IC50 [16] [µM] | IC50 [17] [µM] | IC50 [18] [µM] | IC50 [19] [µM] | IC50 [20] [µM] | IC50 [21] [µM] | also measured |
| --- | --- | --- | --- | --- | --- | --- | --- | --- | --- | --- | --- | --- | --- | --- | --- | --- | --- | --- | --- | --- | --- |
| O=C1NC(=O)/C(=C\c2c[nH]c(=O)c(-c3ccc(N4CCNCC4)nc3)c2)S1 |  |  |  |  |  |  |  |  |  |  |  |  |  |  |  |  |  |  |  |  | IC50 [1]: 0.074 µM |
| CC(C)(C)c1ccc(-c2coc3ccc(-c4cn[nH]c4)nc23)cc1 | > 50 | 0.946 | 1.43 | > 3 | 1.47 | > 3 | > 3 | > 3 | 0.248 | 0.119 | 0.476 | 18 | 43 | 46 | 43 | > 50 | > 50 | > 50 | > 50 | > 50 | IC50 [22]: > 50 µM |
| CC(C)(C)c1ccc(-c2coc3ccc(-c4cn[nH]n4)nc23)cc1 | > 50 | > 3 | > 3 | > 3 | > 3 | > 3 | > 3 | > 3 | 0.285 | 0.123 | 0.283 | > 50 | > 50 | 40 | > 50 | > 50 | > 50 | 15 | > 50 | > 50 | IC50 [22]: > 50 µM |
| COc1cc2c(Oc3ccc(NC(=O)C4(C(=O)Nc5ccc(F)cc5)CC4)cc3F)ccnc2cc1OCCCN1CCOCC1 [FORETINIB] |  |  |  |  |  |  |  |  |  |  |  |  |  |  |  |  |  |  |  |  | IC50 [23]: 0.1 µM; IC50 [24]: 0.1 µM |
| Cc1[nH]c(/C=C2\C(=O)Nc3ccc(S(=O)(=O)Cc4c(Cl)cccc4Cl)cc32)c(C)c1C(=O)N1CCC[C@@H]1CN1CCCC1 [PHA-665752] |  |  |  |  |  |  |  |  |  |  |  |  |  |  |  |  |  |  |  |  | IC50 [25]: 0.1 µM; IC50 [24]: 0.1 µM; IC50 [26]: 0.1 µM |
